From patent US7238694B2, “Rifamycin imino derivatives effective against drug-resistant microbes” (Cumbre Pharmaceuticals, Inc., priority 2004, dated 2007)
Converted amounts (≈) assume the structure as drawn. Read-outs that look alike come from different tables or passages of the source.

Assays:
Type in all cases: cell-based
[1] = test system: Escherichia coli ATCC25922; assay: MIC, microbroth dilution (NCCLS)
[2] = test system: Haemophilus influenzae ATCC10211; assay: MIC, microbroth dilution (NCCLS)
[3] = test system: Staphylococcus aureus ATCC29213; assay: MIC, microbroth dilution (NCCLS)
[4] = test system: Staphylococcus aureus MT1222 gyrA^A116E grlB^S80F; assay: microbe, parasite or virus in culture
[5] = MIC, panel of rifampin-susceptible Gram-positive strains; conditions: text summary over five rifampin-susceptible Gram-positive strains
[6] = test system: Staphylococcus aureus ATCC29213 rpoB^D417Y; assay: microbe, parasite or virus in culture
[7] = test system: H. influenzae ATCC 10211 and E. coli ATCC 25922; assay: MIC, Gram-negative bacteria; conditions: text summary over two Gram-negative strains
[8] = test system: Streptococcus pneumoniae ATCC6303; assay: MIC, microbroth dilution (NCCLS)
[9] = test system: Streptococcus pyogenes ATCC19615; assay: MIC, microbroth dilution (NCCLS)
[10] = test system: Staphylococcus epidermidis ATCC12228; assay: MIC, microbroth dilution (NCCLS)
[11] = test system: Mycobacterium smegmatis ATCC700084; assay: MIC, microbroth dilution (NCCLS)
[12] = test system: Staphylococcus aureus ATCC29213 rpoB^H418Y; assay: microbe, parasite or virus in culture
[13] = test system: Enterococcus faecalis ATCC29212; assay: MIC, microbroth dilution (NCCLS)
[14] = Staphylococcus aureus, ATCC29213
[15] = rifR strain, Cation-Adjusted Mueller-Hinton Broth, 37° C.
[16] = rifS strain, BHI Broth with NAD and hematin, 37° C., read-out: MIC
[17] = rifS strain, Cation-Adjusted Mueller-Hinton Broth, 37° C., read-out: MIC
[18] = cipR strain, Cation-Adjusted Mueller-Hinton Broth, 37° C., read-out: MIC
[19] = rifS strain, THY Broth with 1 mg/mL catalase, 5% CO2, 37° C., read-out: MIC
[20] = rifS strain, THY Broth, 37° C., read-out: MIC
[21] = Staphylococcus aureus, ATCC29213, rifR strain, Cation-Adjusted Mueller-Hinton Broth, 37° C., read-out: MIC

`CO[C@H]1/C=C/O[C@@]2(C)Oc3c(C)c(O)c4c(O)c(c(/C=N/N5CCN(C)CC5)c(O)c4c3C2=O)NC(=O)/C(C)=C\C=C\[C@H](C)[C@H](O)[C@@H](C)[C@@H](O)[C@@H](C)[C@H](OC(C)=O)[C@@H]1C` [rifampin, reference compound] gave an MIC [1] of 16 µg/mL (≈ 19.4 µM), an MIC [2] of 0.24 µg/mL (≈ 0.292 µM) and an MIC [3] of 8 ng/mL (≈ 0.00972 µM). For the same compound, the MIC [4] was 4 ng/mL (≈ 0.00486 µM), the MIC [5] was 0.008 to 1 µg/mL (≈ 0.00972 to 1.22 µM) and the MIC [6, 14] was over 64 µg/mL. It also gave an MIC [6, 15] of over 64 µg/mL, an MIC [7] of 0.24 to 16 µg/mL (≈ 0.292 to 19.4 µM) and an MIC [8] of 0.061 µg/mL (≈ 0.0741 µM). The MIC [9] was 0.013 µg/mL (≈ 0.0158 µM), the MIC [10] was 0.03 µg/mL (≈ 0.0365 µM) and the MIC ([11]; Mycolicibacterium smegmatis, ATCC700084) was 64 µg/mL (≈ 77.8 µM). For the same compound, the MIC ([11]; rifS strain, Middlebrook Broth plus ADC Enrichment, 37° C.) was 64 µg/mL, the MIC [12, 14] was 7.8 µg/mL (≈ 9.48 µM) and the MIC [12, 15] was 7.8 µg/mL (≈ 9.48 µM). It also gave an MIC [13] of 0.98 µg/mL (≈ 1.19 µM).

Work on `COc1c(N2CCC(C3(NC4CCN(/N=C/c5c6c(O)c7c(O)c(C)c8c(c7c5O)C(=O)[C@@](C)(O/C=C/[C@H](OC)[C@@H](C)[C@@H](OC(C)=O)[C@H](C)[C@H](O)[C@H](C)[C@@H](O)[C@@H](C)/C=C/C=C(/C)C(=O)N6)O8)CC4)CC3)C2)c(F)cc2c(=O)c(C(=O)O)cn(C3CC3)c12` (mixture of isomers) [Example 46] yielded an MIC [2, 16] of 0.125 to 4 µg/mL (≈ 0.104 to 3.31 µM), an MIC [3, 17] of 8 to 1000 ng/mL (≈ 0.00663 to 0.828 µM) and an MIC [4, 18] of 8 to 125 ng/mL (≈ 0.00663 to 0.104 µM). The MIC [8, 19] was 0.008 to 0.06 µg/mL (≈ 0.00663 to 0.0497 µM), the MIC [9, 20] was 0.008 to 0.03 µg/mL (≈ 0.00663 to 0.0248 µM) and the MIC [10, 17] was 0.008 to 0.1 µg/mL (≈ 0.00663 to 0.0828 µM). For the same compound, the MIC [12, 21] was 0.06 to 16 µg/mL (≈ 0.0497 to 13.3 µM).

With `COc1c(N2CCC(N(Cc3ccccn3)/N=C/c3c4c(O)c5c(O)c(C)c6c(c5c3O)C(=O)[C@@](C)(O/C=C/[C@H](OC)[C@@H](C)[C@@H](OC(C)=O)[C@H](C)[C@H](O)[C@H](C)[C@@H](O)[C@@H](C)/C=C/C=C(/C)C(=O)N4)O6)C2)c(F)cc2c(=O)c(C(=O)O)cn(C3CC3)c12` (mixture of isomers) [Example 30, (R/S)-3-[1-(3-carboxy-1-cyclopropyl-6-fluoro-8-methoxy-4-oxo-1,4-dihydroquinolin-7-yl)-pyrrolidinyl-3-(pyridin-2-ylmethyl)hydrazino-methylenyl]-rifamycin SV] the MIC [2, 16] was 0.125 to 4 µg/mL (≈ 0.106 to 3.4 µM), the MIC [3, 17] was 8 to 1000 ng/mL (≈ 0.00681 to 0.851 µM) and the MIC [4, 18] was 8 to 125 ng/mL (≈ 0.00681 to 0.106 µM). For the same compound, the MIC [8, 19] was 0.008 to 0.06 µg/mL (≈ 0.00681 to 0.0511 µM), the MIC [9, 20] was 0.008 to 0.03 µg/mL (≈ 0.00681 to 0.0255 µM) and the MIC [10, 17] was 0.008 to 0.1 µg/mL (≈ 0.00681 to 0.0851 µM). For the same compound, the MIC [12, 21] was 0.06 to 16 µg/mL (≈ 0.0511 to 13.6 µM).

Compound `CO[C@H]1/C=C/O[C@@]2(C)Oc3c(C)c(O)c4c(O)c(c(/C=N/NC5CCN(c6c(F)cc7c(=O)c(C(=O)O)cn(C8CC8)c7c6Cl)C5)c(O)c4c3C2=O)NC(=O)/C(C)=C\C=C\[C@H](C)[C@H](O)[C@@H](C)[C@@H](O)[C@@H](C)[C@H](OC(C)=O)[C@@H]1C` (mixture of isomers) [Example 6, (R/S)-3-[1-(8-chloro-3-carboxy-1-cyclopropyl-6-fluoro-4-oxo-1,4-dihydroquinolin-7-yl)-pyrrolidin-3-ylhydrazinomethylenyl]rifamycin SV] has an MIC [2, 16] of 0.125 to 4 µg/mL (≈ 0.115 to 3.67 µM), an MIC [3, 17] of 8 to 1000 ng/mL (≈ 0.00735 to 0.919 µM) and an MIC [4, 18] of 8 to 125 ng/mL (≈ 0.00735 to 0.115 µM). For the same compound, the MIC [8, 19] was 0.008 to 0.06 µg/mL (≈ 0.00735 to 0.0551 µM), the MIC [9, 20] was 0.008 to 0.03 µg/mL (≈ 0.00735 to 0.0276 µM) and the MIC [10, 17] was 0.008 to 0.1 µg/mL (≈ 0.00735 to 0.0919 µM). It also gave an MIC [12, 21] of 0.06 to 16 µg/mL (≈ 0.0551 to 14.7 µM).

Work on `CO[C@H]1/C=C/O[C@@]2(C)Oc3c(C)c(O)c4c(O)c(c(/C=N/N5CCN(c6nc7c(cc6F)c(=O)c(C(=O)O)cn7-c6ccc(F)cc6F)CC5)c(O)c4c3C2=O)NC(=O)/C(C)=C\C=C\[C@H](C)[C@H](O)[C@@H](C)[C@@H](O)[C@@H](C)[C@H](OC(C)=O)[C@@H]1C` [Example 14, 3-[4-[3-Carboxy-1-(2,4-difluoro-phenyl)-6-fluoro-4-oxo-1,4-dihydro-[1,8]naphthyridine-7-yl]-piperazin-1-ylaminomethylenyl]rifamycin SV] yielded an MIC [2, 16] of 0.125 to 4 µg/mL (≈ 0.111 to 3.55 µM), an MIC [3, 17] of 8 to 1000 ng/mL (≈ 0.0071 to 0.887 µM) and an MIC [4, 18] of 8 to 125 ng/mL (≈ 0.0071 to 0.111 µM). It also gave an MIC [8, 19] of 0.008 to 0.06 µg/mL (≈ 0.0071 to 0.0532 µM), an MIC [9, 20] of 0.008 to 0.03 µg/mL (≈ 0.0071 to 0.0266 µM) and an MIC [10, 17] of 0.008 to 0.1 µg/mL (≈ 0.0071 to 0.0887 µM). It also gave an MIC [12, 21] of 0.06 to 16 µg/mL (≈ 0.0532 to 14.2 µM).

For `CO[C@H]1/C=C/O[C@@]2(C)Oc3c(C)c(O)c4c(O)c(c(/C=N/N5CCN(C(=O)C6CCN(c7nc8c(cc7F)c(=O)c(C(=O)O)cn8-c7ccc(F)cc7F)C6)CC5)c(O)c4c3C2=O)NC(=O)/C(C)=C\C=C\[C@H](C)[C@H](O)[C@@H](C)[C@@H](O)[C@@H](C)[C@H](OC(C)=O)[C@@H]1C` (mixture of isomers) [Example 36, (R/S)-3-{4-[1-(3-Carboxy-1-(2,4-difluoro-phenyl)-6-fluoro-4-oxo-1,4-dihydro-[1,8]naphthyridine-7-yl)-pyrrolidin-3-yl-carbonyl]-piperazin-1-yl-aminomethylenyl}-rifamycin SV], the MIC [2, 16] was 0.125 to 4 µg/mL (≈ 0.102 to 3.27 µM), the MIC [3, 17] was 8 to 1000 ng/mL (≈ 0.00653 to 0.817 µM) and the MIC [4, 18] was 8 to 125 ng/mL (≈ 0.00653 to 0.102 µM). For the same compound, the MIC [8, 19] was 0.008 to 0.06 µg/mL (≈ 0.00653 to 0.049 µM), the MIC [9, 20] was 0.008 to 0.03 µg/mL (≈ 0.00653 to 0.0245 µM) and the MIC [10, 17] was 0.008 to 0.1 µg/mL (≈ 0.00653 to 0.0817 µM). The MIC [12, 21] was 0.06 to 16 µg/mL (≈ 0.049 to 13.1 µM).
